Measured values: PMC3745399, “An NO Donor Approach to Neuroprotective and Procognitive Estrogen Therapy Overcomes Loss of NO Synthase Function and Potentially Thrombotic Risk” (PLoS ONE, 2013)

Legend:
[1] = NO levels (NOx) in hippocampus and plasma by chemiluminescence; type: in vivo, mouse; conditions: 2 mg/kg i.p., 1 h; for elevation of NOx in hippocampus / elevation of NOx in plasma: WT mice
Method: Brain and plasma NO levels were assessed by measuring metabolic oxidation products, NO2 ^−and NO3 ^− (NOx), using chemiluminescence detection.
Figure 5 Effects of SERM and NO-SERMon NO levels in plasma and brain of WT and eNOS (−/−) mice. Levels of NO were assessed by measuring breakdown products 1 h after i.p. injection of SERMs (2 mg/kg) using chemiluminescence detection.
All experiments were performed on 6–8 month male C57B1/6 mice (Charles River Laboratory) or eNOS(−/−) animals. Animals were injected (i.p.) at various time points before sacrifice at the doses specified. After euthanasia via CO2, plasma was collected, and cortices and hippocampi were collected after PBS perfusion and stored at −80°C. Tissue samples were weighed and extracted with methanol. Plasma samples were extracted with cold acetonitrile. Quantitative analysis of drug concentrations in plasma and brain used internal standards spiked into plasma and brain homogenates before liquid extraction with acetonitrile or methanol, and separation and measurement was performed with LC-MS/MS tandem mass spectrometry. The supernatant (deproteinized) was analyzed by chemiluminescence with SIEVERS 280i nitric oxide analyzer.

[2] = test system: Ishikawa endometrial cancer cell line; experiment: ER-mediated transcriptional activity (antiestrogen) in Ishikawa cells; type: cell-based; conditions: read-out: antiestrogen potency IC50, ER-mediated transcriptional activity
[3] = Anticoagulation: PT and aPTT after i.p. dosing; type: in vivo, mouse; conditions: for PT / aPTT / anticoagulant effect (PT, aPTT) at 3 h: C57Bl/6 mice, 2 mg/kg i.p.; for PT / aPTT: 1 h; for anticoagulation (PT and aPTT) with NOS blockade: L-NAME 50 mg/kg 30 min prior to collection, SERM 2 mg/kg 1 h prior
Method: Figure 6 Effect of SERMs and NO-SERM on […] clotting cascades. Blood was collected by cardiac puncture and PTT and aPTT were determined 1 or 3 h after i.p. drug administration (2 mg/kg).
SERMs were injected (i.p.) into 6–8 month old male C57Bl/6 mice 1 h before blood collection, and L-NAME was injected (i.p.) 30 min before blood collection. The mouse was sedated by exposing it to CO2 until unconscious and blood was collected in 4.5 mL BD Vacutainer Glass Evacuated Blood Collection Tubes (with 0.105 M buffered sodium citrate) by cardiac puncture. The blood samples were centrifuged at 300 g for 30 min to separate the plasma from the blood, and then 200 uL of plasma was taken from each sample and the PT and aPTT were measured using an ACL 7000 Coagulation Analyzer. The analyzer injects […] of PT-fibrinogen (lyophilized rabbit brain calcium thromboplastin with stabilizers, polybrene, buffer and preservatives) to 75 µL of plasma sample to measure the PT, and 75 µL of synthAFAX (0.025 M)+100 µL of CaCl2 (0.02 M) were added to 75 µL of plasma to measure aPTT. The analysis was at 37°C using a photo sensor at λ = 671 nm.

[4] = test system: C57Bl/6 mice or eNOS(−/−) mice; experiment: Step-through passive avoidance (STPA) memory model; type: in vivo, mouse; conditions: SERM 2 mg/kg; for reversal of scopolamine-induced memory deficit (STPA latency): scopolamine 1 mg/kg i.p., tested 24 h after training; for reversal of scopolamine-induced memory deficit in eNOS KO mice (STPA): scopolamine 1 mg/kg
Method: In this assay, memory is tested 24 h after training and since drugs are only administered during training, any side effects, such as sedation, are highly unlikely to confound the testing results. Furthermore, criteria for training are uniform across all treatment groups. Previously, we have shown NO-donors to reverse cognitive deficits induced by attenuation of cholinergic signaling, [51], [52], [53].
Amnestic memory deficit was induced by i.p. injection of either scopolamine (1 mg/kg) or L-NAME (50 mg/kg) 30 min prior to training in C57Bl/6 male mice. SERMs (2 mg/kg) were given 20 min prior to training and latency was assessed 24 h after training with animals being removed from the task if latency >300 s. All SERMs, except F-DMA, restored scopolamine-induced deficits in STPA in C57Bl/6 animals.
All experiments were performed either on 6–8 month old male C57B1/6 mice or eNOS(−/−) animals. Scopolamine (1 mg/kg) or L-NAME (50 mg/kg) were injected (i.p.) 30 min prior to training, while SERMs (2 mg/kg) were injected 20 min prior to training. Mice were placed in the light compartment of the light/dark box, and as soon as they entered the dark compartment, they received an electric shock (0.5 mA, 60 Hz for 2 seconds). This training was repeated until latency to enter the dark side reached 300 s. At 24 h post-training, animals were individually placed in the light compartment and the latency to enter the dark compartment was recorded with a 300 s cutoff. Details of this widely used assay of behavior have been discussed previously for NO-donor compounds [53], [54], [55].

[5] = test system: hippocampal slices from 16-month old male 3×Tg mice; experiment: LTP in CA1 of hippocampal slices after theta burst stimulation; parameters: species or system mouse; conditions: 3×Tg slices; for enhancement of subsequent theta bursts during LTP induction: 100 nM; for end fEPSP: 100 nM added 30 min prior to TBS, untreated 3×Tg 97.0±6.4%, WT 134.7±10.3%
Method: LTP in the CA1 field of the hippocampus is a well-studied cellular model for learning and memory. […] At 16 months, an advanced age at which Alzheimer's-like neuropathology is well developed in these animals, studies on LTP have not previously been reported. Nevertheless, we observed a robust, reproducible deficit in LTP in these aged transgenic mice, with field excitatory post-synaptic potentials (fEPSP) showing an end fEPSP of 97.0±6.4% of baseline at 45 min post-TBS, compared to 134.7±10.3% observed in the wild type (WT) transgenic background controls (Fig. 3A,B).
Figure 3 Reversal of LTP deficit in aged 3×Tg mice by SERMs is GPR30 dependent. LTP was measured after TBS in the CA1 region of hippocampal sections from 16 month male 3×Tg mice or WT controls. Test compounds (SERMs 100 nM; G15 100 nM) were added 30 min prior to TBS. […] (C) Secondary analysis of theta bursts indicate action both during induction and stabilization of LTP, through a GPR30 dependent mechanism.
All experiments used 16-month old male 3×Tg transgenic or age-matched WT background controls. For electrophysiology, mice were rapidly decapitated, and brains were removed into an ice-cold aCSF solution (in mM: NaCl 124, KCl 3.0, KH2PO4 1.25, NaHCO3 25.7, D-glucose 10, L-ascorbate 2.0, MgSO4 2.5, and CaCl2 3.3) and sectioned on a tissue chopper into 400 µm sections. Slices were transported to a 37°C solution of aCSF, continuously bubbled with 95% O2/5% CO2, and allowed to recover at least 60 min before experimentation. After placement of a stimulation electrode in the Schaffer commissural fibers and recording electrodes with 2 M NaCl solution into the stratum radiatum of the CA1 area, stimulus intensity was set to evoke submaximal fEPSP and continuously monitored at 20 s intervals for at least 15 min to establish a stable baseline. SERMs (100 nM) and G15 (100 nM) were prepared fresh in perfusate and started at least 30 min before LTP induction to reach a new baseline after enhancement of basal synaptic transmission was observed. […] Resulting fEPSP was monitored at 20 s intervals for ∼60 min post TBS.

| SMILES | elevation of NOx in hippocampus [1] | elevation of NOx in plasma [1] | NOx in hippocampus, eNOS(−/−) ([1]; eNOS(−/−) mice) | NOx in plasma, eNOS(−/−) ([1]; eNOS(−/−) mice) | IC50 [2] [nM] | PT [3] | aPTT [3] | anticoagulant effect (PT, aPTT) at 3 h [3] | anticoagulation (PT and aPTT) with NOS blockade [3] | reversal of L-NAME-induced cognitive deficit (STPA latency) ([4]; C57Bl/6 male mice, L-NAME 50 mg/kg i.p.) | reversal of scopolamine-induced memory deficit (STPA latency) ([4]; C57Bl/6 male mice) | reversal of scopolamine-induced memory deficit in eNOS KO mice (STPA) [4] | enhancement of subsequent theta bursts during LTP induction [5] | end fEPSP [5] | end fEPSP with G15 ([5]; DMA 100 nM + G15 100 nM) [%] | effect on LTP with ODQ (sGC inhibitor) ([5]; ODQ 10 nM, variable interburst interval, preliminary) |
| --- | --- | --- | --- | --- | --- | --- | --- | --- | --- | --- | --- | --- | --- | --- | --- | --- |
| O=[N+]([O-])OCCCC1CCN(CCOc2ccc(Oc3c(-c4ccc(O)cc4)sc4cc(O)ccc34)cc2)CC1 [NO-DMA, 3-(1-(2-(4-(6-hydroxy-2-(4-ydroxyphenyl)benzo[b]thiophen-3-yloxy)phenoxy)ethyl)piperidin-4-yl)propyl nitrate] | greater than twofold elevation | greater than twofold elevation | increase NOx significantly, relative to DMA | increase NOx significantly, relative to DMA | 3.9 ± 1.3 | significantly increased PT | significantly increased aPTT | remained significantly higher than control | significantly increased anticoagulation compared to control in both PT and aPTT | reversed by NO-DMA | complete reversal of the memory deficit | significantly improved memory | augmented | 144.2±5.2 % of baseline | – | – |
| Oc1ccc(-c2sc3cc(O)ccc3c2Oc2ccc(OCCN3CCCCC3)cc2)cc1 [DMA, desmethylarzoxifene] | greater than twofold elevation | greater than twofold elevation | – | – | 0.1 ± 0.1 | showed a clear trend | significantly increased aPTT | decreased to that of control samples | did not persist in the presence of NOS blockade | – | complete reversal of the memory deficit | not influenced by treatment with DMA | augmented | 144.9±8.7 % of baseline | 96.8±7.1 | ODQ blocks effect of DMA on LTP |
